# Data from patent US20210269661A1, “INK COMPOSITIONS” (HEWLETT-PACKARD DEVELOPMENT COMPANY, L.P., priority 2018, published 2021).
# Where two headings read alike, the source gives them in different places.
# Test: Partition coefficient of organic co-solvents (log P 1-octanol/water)
# Source text: The hydrophilicity of the organic co-solvent can be quantified as a partition coefficient. As used herein, “partition coefficient” refers to a concentration ratio of a compound in an equilibrium mixture of two immiscible phases, and can be a measure of the difference in solubility of the compound in the two immiscible phases. Formula I provides an equation of quantifying the hydrophilicity of the organic co-solvents of the present disclosure, as follows: […]
# [1] = equilibrium mixture of 1-octanol and water
Structure (SMILES),Partition Coefficient (log P1-octanol/water),Partition Coefficient (log P1-octanol/water) [1] [log P1-octanol/water]
OCCOCCOCCO [triethylene glycol],−1.00,–
O [water],−0.825,–
O=C1CCCN1CCO [N-(2-hydroxyethyl)-2-pyrrolidinone],−0.40,–
"CCCCCCCCO [Ink 1-octanol, 1-octanol]",2.34,–
"CC1(C)NC(=O)NC1=O [5,5-dimethyl hydantoin]",−0.40,–
O=C1CCCN1 [2-pyrrolidone],–,−0.10
"CC1(C)C(=O)N(CCO)C(=O)N1CCO [di-(2-hydroxyethy)-5,5-dimethylhydantoin]",−1.39,–
CCC(CO)(CO)CO [ethylhydroxy propanediol],–,−0.50
